Results as given in the supplement of paper PMC4862054.

Tests used:
Details in all cases: incubation time: 72 h
CAL-85-1 [1] = assay: normalised viability (% of control), CellTiter-Blue; higher = more viable cells (100 = DMSO, 0 = benzethonium chloride kill control)
Protocol: (§1)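 DSRT, CellTiter-Blue viability, 72 h incubation. Signal is normalised to DMSO and benzethonium chloride controls. Value is the normalised response at dose 1.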

DU-4475 [2] = assay: as above
Protocol: as §1

Hs578T [3] = assay: as above
Protocol: as §1

MDA-MB-436 [4] = assay: as above
Protocol: as §1

BT-474 [5] = assay: as above
Protocol: as §1

HCC1937 [6] = assay: as above
Protocol: as §1

HCC1599 [7] = assay: as above
Protocol: as §1

MDA-MB-468 [8] = assay: as above
Protocol: as §1

SK-BR-3 [9] = assay: as above
Protocol: as §1

BT-549 [10] = assay: as above
Protocol: as §1

MFM-223 [11] = assay: as above
Protocol: as §1

MDA-MB-453 [12] = assay: as above
Protocol: as §1

HDQ-P1 [13] = assay: as above
Protocol: as §1

HCC1143 [14] = assay: as above
Protocol: as §1

CAL-120 [15] = assay: as above
Protocol: as §1

MDA-MB-231 [16] = assay: as above
Protocol: as §1

CAL-148 [17] = assay: as above
Protocol: as §1

CAL-51 [18] = assay: as above
Protocol: as §1

CAL-85-1 [19] = assay: normalised response (% of control), CellTiter-Glo; higher = more viable cells (100 = DMSO, 0 = benzethonium chloride kill control)
Procedure, shortened: (§2)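 In 384-well plates holding compound at 5 concentrations in 10-fold steps over a 10,000-fold range specific to each compound, breast cancer cell lines were seeded as 20 µl suspension and incubated 72 h. CellTox Green fluorescence was measured at 485/520 nm, after which CellTiter-Glo luminescence was measured following 10 min at room temperature. Plate signals were normalised to 0.1 % DMSO (100) and a positive kill control (0), and each value is the normalised signal at a single concentration.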

DU-4475 [20] = assay: as above
Procedure, shortened: as §2

Hs578T [21] = assay: as above
Procedure, shortened: as §2

MDA-MB-436 [22] = assay: as above
Procedure, shortened: as §2

BT-474 [23] = assay: as above
Procedure, shortened: as §2

MCF-10A = assay: as above
Procedure, shortened: as §2

HCC1937 [24] = assay: as above
Procedure, shortened: as §2

HCC1599 [25] = assay: as above
Procedure, shortened: as §2

MDA-MB-468 [26] = assay: as above
Procedure, shortened: as §2

SK-BR-3 [27] = assay: as above
Procedure, shortened: as §2

BT-549 [28] = assay: as above
Procedure, shortened: as §2

MFM-223 [29] = assay: as above
Procedure, shortened: as §2

MDA-MB-453 [30] = assay: as above
Procedure, shortened: as §2

HDQ-P1 [31] = assay: as above
Procedure, shortened: as §2

HCC1143 [32] = assay: as above
Procedure, shortened: as §2

CAL-120 [33] = assay: as above
Procedure, shortened: as §2

MDA-MB-231 [34] = assay: as above
Procedure, shortened: as §2

CAL-148 [35] = assay: as above
Procedure, shortened: as §2

CAL-51 [36] = assay: as above
Procedure, shortened: as §2

Compound	normalised viability (CAL-85-1 [1]) [%]	normalised viability (DU-4475 [2]) [%]	normalised viability (Hs578T [3]) [%]	normalised viability (MDA-MB-436 [4]) [%]	normalised viability (BT-474 [5]) [%]	normalised viability (HCC1937 [6]) [%]	normalised viability (HCC1599 [7]) [%]	normalised viability (MDA-MB-468 [8]) [%]	normalised viability (SK-BR-3 [9]) [%]	normalised viability (BT-549 [10]) [%]	normalised viability (MFM-223 [11]) [%]	normalised viability (MDA-MB-453 [12]) [%]	normalised viability (HDQ-P1 [13]) [%]	normalised viability (HCC1143 [14]) [%]	normalised viability (CAL-120 [15]) [%]	normalised viability (MDA-MB-231 [16]) [%]	normalised viability (CAL-148 [17]) [%]	normalised viability (CAL-51 [18]) [%]	normalised response (CAL-85-1 [19]) [%]	normalised response (DU-4475 [20]) [%]	normalised response (Hs578T [21]) [%]	normalised response (MDA-MB-436 [22]) [%]	normalised response (BT-474 [23]) [%]	normalised response (MCF-10A) [%]	normalised response (HCC1937 [24]) [%]	normalised response (HCC1599 [25]) [%]	normalised response (MDA-MB-468 [26]) [%]	normalised response (SK-BR-3 [27]) [%]	normalised response (BT-549 [28]) [%]	normalised response (MFM-223 [29]) [%]	normalised response (MDA-MB-453 [30]) [%]	normalised response (HDQ-P1 [31]) [%]	normalised response (HCC1143 [32]) [%]	normalised response (CAL-120 [33]) [%]	normalised response (MDA-MB-231 [34]) [%]	normalised response (CAL-148 [35]) [%]	normalised response (CAL-51 [36]) [%]
Cc1c(N)nc([C@H](CC(N)=O)NC[C@H](N)C(N)=O)nc1C(=O)N[C@H](C(=O)N[C@H](C)[C@@H](O)[C@H](C)C(=O)N[C@H](C(=O)NCCc1nc(-c2nc(C(=O)NCCC[S+](C)C)cs2)cs1)[C@@H](C)O)[C@@H](OC1OC(CO)C(O)C(O)C1OC1OC(CO)C(O)C(OC(N)=O)C1O)c1cnc[nH]1 (some centres not stated) [Bleomycin] (1 nM)	97.8	116	98.8	121	84.4	92.7	126	85.4	83.4	97.3	102	91.7	91.5	92.5	89.3	86.7	112	94.5	97.4	97.1	97.3	102	96.3	93.2	98	90.8	95.5	103	104	96.5	105	96.4	96.4	99	92.3	93.2	113
Cc1cc2c(F)c(Oc3ncnn4cc(OC[C@@H](C)O)c(C)c34)ccc2[nH]1 [Brivanib] (0.1 nM)	86.7	109	112	114	93.5	82.1	96	104	98	109	96.5	104	84.9	101	78.7	99.5	107	93.4	101	104	104	101	104	108	101	111	113	111	100	105	104	97.9	104	101	107	106	114
CC(C)C[C@H](NC(=O)[C@H](CCc1ccccc1)NC(=O)CN1CCOCC1)C(=O)N[C@@H](Cc1ccccc1)C(=O)N[C@@H](CC(C)C)C(=O)[C@@]1(C)CO1 [Carfilzomib] (0.1 nM)	95.5	107	100	101	116	84.8	100	100	99.7	105	83.4	96.9	95.6	100	89.8	132	99.9	110	105	103	100	105	108	106	105	120	109	105	97.3	104	108	110	104	103	107	109	124
Nc1nc(Cl)nc2c1ncn2[C@@H]1O[C@H](CO)[C@@H](O)[C@@H]1F [Clofarabine] (1 nM)	87	101	116	100	89.5	93.7	101	111	91	93.7	93	107	118	87.1	90.4	90.3	91	108	97.4	99	103	97.4	101	107	98.1	90	94.9	99.1	94.8	101	106	98.3	96.7	101	101	90.5	79.9
CCN(CC)CCOc1ccc(C(=C(Cl)c2ccccc2)c2ccccc2)cc1 [Clomifene] (1 nM)	89	92.8	123	111	95.6	97.7	79.7	103	96.7	116	101	102	125	89.7	90.2	104	105	94.5	104	104	101	111	106	95.8	96.9	99.8	98.8	108	101	99.6	106	99.2	105	95.8	106	109	102
C[C@@H]1C[C@H]2[C@@H]3CCC4=CC(=O)C=C[C@]4(C)[C@@]3(F)[C@@H](O)C[C@]2(C)[C@@]1(O)C(=O)CO [Dexamethasone] (1 nM)	107	96.6	93.5	85.8	119	82	84	106	111	157	91.6	94.3	92.9	91.8	82.3	126	109	95.6	102	100	107	115	107	90	98.9	100	94.6	95.6	102	94.7	102	104	96.2	94.3	112	89.2	116
